What all share (assay type): in vivo
The test system of data set [1] is hairless SKH1-E mice. Nature of the data set: Skin irritation on dorsal skin (erythema, desquamation, lesions/abrasion), visual score. To be noted: for Mean skin irritation score: scale of 0-4. On the procedure: (§1) UAB30, 4Me-UAB30 and UAB111 at 0.1% and 0.3%, tazarotene at 0.1% and vehicle were applied topically on approximately 8 cm2 (2×4 cm) of the dorsal skin (100 μL) and on the right ear (20 μL).
(§2) The test compounds were UAB30, 4Me-UAB30 and UAB111. Tazarotene (0.1% cream) was purchased by Ricerca Taiwan Ltd. The three compounds at 0.1% and 0.3%, Tazarotene (0.1% cream) and vehicle (70% ethanol/30% propylene glycol) were each administered topically on the back (100 μL) and on the right ear (20 μL) once daily for two weeks.
(§3) Female SKH1-E hairless mice (Crl:SKH1-Hrhr) weighing 22±2 g were used. The animals were divided into groups of 5 each. Once a day, 100 μl of vehicle, tazarotene, and test articles were applied on the back with a micropipette and smeared evenly with gloved finger on approximately 8 cm2 (2×4 cm) of the dorsal skin; 20 μl was applied to the right ear. The tested animals were treated for two consecutive weeks. Body weight was monitored twice a week.
Erythema, desquamation (skin flaking), and skin lesions/abrasion on dorsal skin were assessed visually in individual animals at the end of a 2-week treatment and scored on a scale of 0 to 4+, with 4+being maximal. • 0: Normal • 1+: Mild erythema • 2+: Moderate erythema • 3+: Severe erythema/Desquamation • 4+: Lesions/abrasion.

Data set [2] has as its system hairless SKH1-E mice. The data set is described as follows: Epidermal hyperplasia on dorsal skin (marker of retinoid activity), 14-day topical application. To be noted: for epidermal hyperplasia grading, average: dorsal skin, scale of 0=none to 5=marked. The protocol: as §1, §2, §3
(§4) Epidermal hyperplasia on the dorsal skin was used as a marker of retinoid activity. For histological evaluation, mice were sacrificed on day 15. The dorsal skin was dissected and stretched to the natural size on the filter. Punch biopsies (ED 8 mm) were obtained, fixed in 10% buffered formalin, and embedded in paraffin. Five micro thick sections were cut, stained with H&E, and a representative section of each biopsy was selected for histological evaluation.
(§5) For histological evaluation, the dorsal skin was dissected and stretched to the natural size on the filter. Punch biopsies (ED 8 mm) were obtained, fixed in 10% buffered formalin, and embedded in paraffin. Five micro thick sections were cut, stained with H&E, and a representative section of each biopsy was selected for histological evaluation. Right ear was harvested on day 15 for measurements of myeloperoxidase activity by mouse MPO ELISA kit, a measure of neutrophil infiltrates.

Data set [3] has as its system hairless SKH1-E mice. Nature of the data set: Ear myeloperoxidase (MPO) by mouse MPO ELISA kit, measure of neutrophil infiltrates. To be noted: harvested day 15. On the procedure: as §1, §2, §3, §5
In general terms: In an ELISA, binding on a coated surface is turned into a signal by an enzyme label.

For data set [4], the system named is hairless SKH1-E mice. Nature of the data set: Histopathology of dorsal skin: hyperkeratosis/serocellular crust, utriculus formation, sebaceous gland hyperplasia. As to conditions: of 5 mice per group. The protocol:
as §3, §4, §5

The mark [5] stands for this setting: 0.1% topical once daily for 14 days.
Setting [6] is: 0.1% topical 20 μL on right ear for 14 days.

Regarding `CCOC(=O)c1ccc(C#Cc2ccc3c(c2)C(C)(C)CCS3)nc1` [Tazarotene, reference compound], the “Mean skin irritation score” value in the data set with hairless SKH1-E mice [1] (0.1% topical for 14 days) worked out at 3. For the same molecule, the “epidermal hyperplasia grading, average” value with hairless SKH1-E mice [2] (setting [5]) was 2. Moreover, the “ear Myeloperoxidase (MPO), marker of neutrophil infiltration” value in the data set on hairless SKH1-E mice [3] (setting [6]) is “marked increase”.
On to `CC(=C/C=C/C(C)=C/C(=O)O)/C=C1\CCCc2ccccc21` [UAB30, (2E,4E,6E,8E)-8-(3′,4′-Dihydro-1′(2′H)-naphthalen-1′-ylidene)3,7-dimethyl-2,4,6-octatrienoic acid], for which the “skin irritation, observation in words” value with hairless SKH1-E mice [1] (0.1% topical for 14 days, groups of 5) is listed as “did not cause any irritation”. The “Mean skin irritation score” value in the data set with hairless SKH1-E mice [1] (0.3% topical for 14 days) came to 1. Also, the “epidermal hyperplasia grading, average” value is listed as 1.8 in the data set with hairless SKH1-E mice [2] (setting [5]) and 2 in the data set with hairless SKH1-E mice [2] (0.3% topical once daily for 14 days). In addition, in the data set with hairless SKH1-E mice [2] (14-day topical, histopathology, concentration not specified (0.1% and 0.3% groups)), the “incidence of epidermal hyperplasia compared to 0.1% Tazarotene” value is “comparable incidence”. Also, the “ear Myeloperoxidase (MPO), marker of neutrophil infiltration” value in the data set on hairless SKH1-E mice [3] (setting [6]) and with hairless SKH1-E mice [3] (0.3% topical 20 μL on right ear for 14 days) was “no effect” each time. The “Hyperkeratosis and/or serocellular crust, number of mice affected” value is listed as 1 in the data set on hairless SKH1-E mice [4] (0.1% topical for 14 days) and “not reported” in the data set on hairless SKH1-E mice [4] (0.3% topical for 14 days).

The record behind these values is patent US8475775B1, “Retinoids and use thereof” (The UAB Research Foundation, priority 2012, dated 2013).
